Results taken from ChEMBL document CHEMBL1128867, “Structure-based drug design of nonpeptidic P2 substituents for HIV-1 protease inhibitors” (Bioorg Med Chem Lett, 1995).
In brackets after ≈: the same amount, converted by molar mass.

Columns and labels:
[1] = system: CCRF-CEM; test: Inhibitory activity against CEM cells; type: functional, cell-based; details: Homo sapiens
[2] = target: Human immunodeficiency virus type 1 protease (Human immunodeficiency virus 1, UniProt Q72874); test: Inhibitory activity HIV-1 protease enzyme
[3] = Oral availability was tested for plasma levels at a dose of 40 mg/kg, after 6 hr of in fed fisher rats.; type: ADME, organism-based; set-up: dose 40 mg/kg; details: Fischer, rat, read-out: Oral availability
[4] = target: Human immunodeficiency virus type 1 protease (Human immunodeficiency virus 1) (UniProt Q72874); test: Concentration required for the inhibition against HIV-protease enzyme at a dose of 40 mg/kg in fed fisher rats; type: organism-based; set-up: dose 40 mg/kg

Compound	IC50 [1] [µg/mL]	Ki [2] [nM]	bioavailability [3] [%]	IC90 [4] [µg/mL]
CC(C)(C)NC(=O)c1ccccc1C[C@@H](O)[C@H](CSc1ccc2ccccc2c1)NC(=O)c1cccc(N)c1Cl	1.5 (≈ 2.6 µM)	16		
Cc1c(O)cccc1C(=O)N[C@@H](Cc1ccccc1)[C@H](O)CN1C[C@H]2CCCC[C@H]2C[C@H]1C(=O)NC(C)(C)C	0.01 (≈ 0.0187 µM)	21	44	0.03 (≈ 0.056 µM)
CC(C)(C)NC(=O)c1ccccc1C[C@@H](O)[C@H](CSc1ccc2ccccc2c1)NC(=O)c1cccc2ncccc12	5.7 (≈ 9.87 µM)	113		
Cc1c(N)cc(N)cc1C(=O)N[C@@H](CSc1ccc2ccccc2c1)[C@H](O)Cc1ccccc1C(=O)NC(C)(C)C	0.46 (≈ 0.806 µM)	5		
CC(C)(C)NC(=O)c1ccccc1C[C@@H](O)[C@H](CSc1ccc2ccccc2c1)NC(=O)c1ccnc2ccccc12	5.6 (≈ 9.69 µM)	265		
CC(C)(C)NC(=O)c1ccccc1C[C@@H](O)[C@H](CSc1ccc2ccccc2c1)NC(=O)c1cccc2c1CCCN2	1.9 (≈ 3.27 µM)	24		
CC(C)(C)NC(=O)c1ccccc1C[C@@H](O)[C@H](CSc1ccc2ccccc2c1)NC(=O)c1cccc2cnccc12	16 (≈ 27.7 µM)	800		
Cc1c(O)cccc1C(=O)N[C@@H](CSc1ccc2ccccc2c1)[C@H](O)Cc1ccccc1C(=O)NC(C)(C)C	0.97 (≈ 1.74 µM)	3		
CC(C)(C)NC(=O)c1ccccc1C[C@@H](O)[C@H](CSc1ccc2ccccc2c1)NC(=O)c1cccc(O)c1Cl		15		
Cc1ccc(N)cc1C(=O)N[C@@H](CSc1ccc2ccccc2c1)[C@H](O)Cc1ccccc1C(=O)NC(C)(C)C	1.3 (≈ 2.34 µM)	17		
CC(C)(C)NC(=O)c1ccccc1C[C@@H](O)[C@H](CSc1ccc2ccccc2c1)NC(=O)c1cccc(N)c1Br	1.6 (≈ 2.58 µM)	33		
Cc1ccc(O)cc1C(=O)N[C@@H](CSc1ccc2ccccc2c1)[C@H](O)Cc1ccccc1C(=O)NC(C)(C)C		500		
Cc1c(N)cccc1C(=O)N[C@@H](CSc1ccc2ccccc2c1)[C@H](O)Cc1ccccc1C(=O)NC(C)(C)C	5 (≈ 9 µM)	49		
CC(C)(C)NC(=O)c1ccccc1C[C@@H](O)[C@H](CSc1ccc2ccccc2c1)NC(=O)c1cccc2c1CCNC2	> 50	180		
Cc1c(C(=O)N[C@@H](CSc2ccc3ccccc3c2)[C@H](O)Cc2ccccc2C(=O)NC(C)(C)C)cccc1[N+](=O)[O-]	> 50	540		
CC(C)(C)NC(=O)c1ccccc1C[C@@H](O)[C@H](CSc1ccc2ccccc2c1)NC(=O)c1cccc2c1CCN2	> 50	166		
CC(C)(C)NC(=O)c1ccccc1C[C@@H](O)[C@H](CSc1ccc2ccccc2c1)NC(=O)c1cccc2[nH]ccc12	6.6 (≈ 11.7 µM)	164		
